Where two headings read alike, the source gives them in different places.

The target in one assay is CDK1 (p34 cdc2)/cyclin B. The assay can be described thus: CDK inhibition assay (histone H1 kinase), CDK1. To be noted: for IC50: CDK1; for IC50 / effect of side chain at N9 or N7, or halo at C2, on activity: Table 1; for effect of side chain at N9 or N7, or halo at C2, on activity: in words; for % inhibition CDK1: at 100 μM. It counts as biochemical, starfish (Marthasterias glacialis). The protocol: (§1) By way of example, however, a typical protocol is summarised below.
Histone H1 (type III-S (Sigma) 4° C.) 5 mg/ml in buffer C.
[^32 P]ATP […]: Make up using (multiples of) the following proportions:
DMSO cannot exceed 1% in the assay mixture. Inhibitors are added at 1/10 final assay volume and 10×final strength. DMSO stocks must therefore be diluted to 10×final desired concentration in ≤10% DMSO, ≥90% buffer C.
Start reaction in each tube at 30 second intervals by adding
5 ml [^32 P]ATP vortexing and placing in rack in waterbath at 30° C.
Terminate reaction after 10 min at 30 second intervals in tubes in same order by removing
25 ml reaction mix and spotting onto appropriately labelled filter, allowing to dry for 20-30 seconds and transferring to stirring 1% phosphoric acid.
Blank incubation is performed as above but without histone (add […] buffer C instead) Washing blank is […] ATP added directly to filter.

Another assay has as its target CDK2 (Homo sapiens, UniProt P24941). The assay can be described thus: CDK inhibition assay, CDK2. It counts as biochemical.
Description: Apart from reference compounds, the compounds listed are accompanied by an NU reference or identification code number.
as §1

The mark [1] stands for this setting: at 100 μM, read-out: % inhibition CDK2.
Where [2] appears, read: read-out: % inhibition CDK2, at 100 μM.

As for `COc1nc(N)nc2nc[nH]c12` [NU2004, 2-amino-6-methoxypurine], the IC50 (commonly the concentration needed to halve the response being measured) against CDK1 (p34 cdc2)/cyclin B stood at 200 µM.
For the molecule `CC(=O)COc1nc(N)nc2[nH]cnc12` [NU2035, O^6-(2-Oxopropyl)guanine], it took 100 µM to reach half-maximal inhibition against CDK1 (p34 cdc2)/cyclin B (IC50).
Still for that read-out and setting: for `C=CCCCCOc1nc(N)nc2[nH]cnc12` [NU2061, O^6-(5'-Hexenyl)guanine] the value was 12 µM; for `C=C(COc1nc(N)nc2[nH]cnc12)C(C)C` [NU2055, O^6-(2-Isopropylallyl)guanine], 13 µM.
Still for that read-out and setting: the result for `C=CCOc1nc(N(C)C)nc2nc[nH]c12` [NU2048, 2-(N,N-dimethyl)amino-6-allyloxypurine] reads 22 µM.
Consider `C=CCOc1nc(Cl)nc2nc[nH]c12` [NU2051, 6-allyloxy-2-chloropurine], for which, at CDK1 (p34 cdc2)/cyclin B, the midpoint of inhibition, the IC50, lay at 400 µM and the “effect of side chain at N9 or N7, or halo at C2, on activity” value (shortened to “effect of side chain at N9 or N7”) is “activity drastically diminishes”.
As for `CC1(C)OC[C@@H](COc2nc(N)nc3[nH]cnc23)O1` [NU6024, 2-amino-6-[(R)-2',2'-dimethyl-1',3'-dioxolane-5'-methyl]oxypurine], the inhibition (commonly the share of the control response that was lost under treatment) at 100 µM at CDK2 (setting [1]) turned out to be 38 ± 3%. In addition, in the assay on CDK1 (p34 cdc2)/cyclin B, the “% inhibition CDK1” value amounted to 50 ± 1%.
In the case of `Nc1nc(N)c(N)c(OCc2ccccc2)n1` [NU6040, 2,5,6-triamino-4-(benzylmethoxy) pyrimidine], on CDK2 (setting [1]), the inhibition at 100 µM was determined as 6 ± 10%.
For `CCOC(C)(COc1nc(N)nc2[nH]cnc12)OCC` [NU2032, 2-amino-6-(2,2-diethoxy) propoxypurine], at CDK1 (p34 cdc2)/cyclin B, the IC50 was > 100 µM.
On the same count and under the same terms, the result for `CCOc1nc(N)nc2nc[nH]c12` [NU2046, 2-amino-6-ethoxypurine] reads 100 µM.
The same measure, in the same setting: the result for `C=C(CC)COc1nc(N)nc2[nH]cnc12` [NU2054, O^6-(2-Ethylallyl)guanine] reads 20 µM.
On the same count and under the same terms, for `Nc1nc(OCC(=O)c2ccccc2)c2nc[nH]c2n1` [NU2033, O^6-(2-Oxo-2-phenylethyl)guanine] the value was 100 µM.
Consider `Nc1cc(OCc2ccccc2)nc(N)n1` [NU6038], for which, on CDK2 (setting [1]), the inhibition at 100 µM was determined as 0%. In addition, the “% inhibition CDK1” value with CDK1 (p34 cdc2)/cyclin B was 3 ± 3%.
In the case of `CC1(C)OCC(COc2nc(N)nc3[nH]cnc23)O1` (centres unmarked) [NU6021, O^6-(2,2-Dimethyl-1,3-dioxolane-4-methoxy)guanine], the inhibition at 100 µM on CDK2 (setting [2]) worked out at 35 ± 6%. The “% inhibition CDK1” value with CDK1 (p34 cdc2)/cyclin B worked out at 36 ± 9%.
With `c1nc(OCC2CCCCC2)c2[nH]cnc2n1` [NU2017, 6-cyclohexylmethoxypurine], the IC50 at CDK2 (CDK2, Table 1, read-out: IC50 CDK2) stood at 15.5 µM; against CDK1 (p34 cdc2)/cyclin B it was 16 µM. Also, on CDK2 (setting [2]), the inhibition at 100 µM turned out to be 61 ± 2%.
As to `Nc1nc(N)c(N=O)c(OCc2ccccc2)n1` [NU6039, 2,6-diamino-4-(benzylmethoxy) 5-nitrosopyrimidine], at CDK2 (setting [2]), the inhibition at 100 µM worked out at 51 ± 2%. Further, in the assay with CDK1 (p34 cdc2)/cyclin B, the “% inhibition CDK1” value was 54 ± 9%.
With `C#CCOc1nc(N)nc2[nH]cnc12` [NU2031, O^6 -Propargylguanine], the concentration for half-maximal inhibition (IC50) on CDK1 (p34 cdc2)/cyclin B turned out to be 60 µM.
Still for that read-out and setting: for `COC(COc1nc(N)nc2[nH]cnc12)(OC)c1ccccc1` [NU2081, 2-amino-6-(2,2-dimethoxy)-2-phenylethyloxypurine] the value was > 100 µM; for `CC(C)C1(COc2nc(N)nc3[nH]cnc23)OCCO1` [NU2057, O^6-(3-Methyl-2-oxobutyl)guanine ethylene acetal], 105 µM.
Turning to `CNc1cc(Cl)nc(N)n1` [NU6042, 2-amino-4-chloro-6-methylamino pyrimidine], on CDK2 (setting [1]), the inhibition at 100 µM amounted to 14 ± 24%.
For `Nc1nc(OCc2ccco2)c2nc[nH]c2n1` [2-amino-6-(2-furanyl)-methyloxypurine], the IC50 on CDK1 (p34 cdc2)/cyclin B was determined as 75 µM.
For the molecule `Nc1nc(OCC2COC3(CCCCC3)O2)c2nc[nH]c2n1` (centres unmarked) [NU6022, O^6-(1,4-Dioxaspiro[4.5]decane-2-methoxy)guanine], the inhibition at 100 µM on CDK2 (setting [2]) is 27 ± 4%. Moreover, the “% inhibition CDK1” value in the assay on CDK1 (p34 cdc2)/cyclin B came to 26 ± 6%.
Consider `c1nc(OCC2CCCCO2)c2[nH]cnc2n1` (centres unmarked) [NU2014, 6-(2-tetrahydropyranyl-methyloxy)purine], for which the IC50 at CDK1 (p34 cdc2)/cyclin B was > 100 µM.
On CDK1 (p34 cdc2)/cyclin B, `CCCOc1nc(N)nc2nc[nH]c12` [NU2045, 2-amino-6-propoxypurine] registered an IC50 of 50 µM.
Still for that read-out and setting: for `C=CCOc1ncnc2nc[nH]c12` [NU2013, 6-Allyloxypurine] the value was 110 µM; for `CC/C=C/CCOc1nc(N)nc2[nH]cnc12` [NU2067, O^6-(trans-3'-Hexenyl)guanine], 38 µM.
Turning to `C=CCOc1nc(N)nc2ncn(CC=C)c12` [NU2037, N^7,O^6 -Diallylguanine], at CDK1 (p34 cdc2)/cyclin B, the IC50 is > 1000 µM and the “effect of side chain at N9 or N7” value is listed as “activity drastically diminishes”.
`Nc1nc(OCc2cccnc2)c2nc[nH]c2n1` [NU6029, 2-Amino-6-(3'-pyridyl)methyloxypurine]: at CDK2 (setting [1]), the inhibition at 100 µM is 43 ± 4%. Further, the “% inhibition CDK1” value in the assay on CDK1 (p34 cdc2)/cyclin B turned out to be 56 ± 4%.
In the case of `C=C(C)COc1nc(N)nc2[nH]cnc12` [NU2034, O^6-(2-Methylallyl)guanine], on CDK1 (p34 cdc2)/cyclin B, it took 32 µM to reach half-maximal inhibition (IC50).
On the same count and under the same terms, for `Nc1nc(OCC(O)CO)c2nc[nH]c2n1` (centres unmarked) [NU2040, 2-amino-6-(2,3-dihydroxy) propoxypurine] the value was > 100 µM; for `c1ccc(COc2ncnc3nc[nH]c23)cc1` [NU2002, 6-Benzyloxypurine], 51 µM.
Turning to `Nc1cc(OCC2CC=CCC2)nc(N)n1` (centres unmarked) [NU6046], the inhibition at 100 µM on CDK2 (setting [2]) came out at 8 ± 1%. The “% inhibition CDK1” value in the assay on CDK1 (p34 cdc2)/cyclin B came to 16 ± 13%.
For the molecule `Nc1nc(OCC2=CCCC2)c2nc[nH]c2n1` [NU2074, O^6-(1'-Cyclopentenyl)methylguanine], on CDK1 (p34 cdc2)/cyclin B, half-maximal inhibition (IC50) required 7 µM.
The same measure, in the same setting: the result for `c1ccc(CCOc2ncnc3nc[nH]c23)cc1` [NU2023, 6-(2-Phenylethyloxy)purine] reads 130 µM.
On to `Nc1nc(OCc2ccccc2)c2[nH]c(=O)[nH]c2n1` [NU6043, 2-Amino-6-benzyl-8-oxoguanine], for which the inhibition at 100 µM on CDK2 (setting [1]) came to 8 ± 13%. In the assay with CDK1 (p34 cdc2)/cyclin B, the “% inhibition CDK1” value amounted to 13 ± 9%.
For the molecule `CC1(C)OC[C@H](COc2nc(N)nc3[nH]cnc23)O1` [NU6025, 2-amino-6-[(S)-2',2'-dimethyl-1',3'-dioxolane-5'-methyl]oxypurine], the inhibition at 100 µM on CDK2 (setting [2]) was found to be 28 ± 4%. For the same molecule, the “% inhibition CDK1” value in the assay with CDK1 (p34 cdc2)/cyclin B was 34 ± 2%.
In the case of `C=CCOc1nc(N)nc2c1ncn2CC=C` [NU2036, N^9,O^6 -Diallylguanine], at CDK1 (p34 cdc2)/cyclin B, the half-inhibitory concentration (IC50) was > 1000 µM and the “effect of side chain at N9 or N7” value is “activity drastically diminishes”.
The like results for `C=CCOc1nc(N)nc2c1ncn2Cc1ccccc1` [NU2038, O^6 -Allyl-N^9 -benzylguanine] were, in that order, > 1000 µM and “activity drastically diminishes”.
In the case of `Nc1nc(OCCc2ccccc2)c2nc[nH]c2n1` [NU2041, O^6-(2-Phenylethyl)guanine], the IC50 against CDK1 (p34 cdc2)/cyclin B stood at 100 µM.
The same measure, in the same setting: the result for `COCC(COc1nc(N)nc2nc[nH]c12)OC` (centres unmarked) [NU2044, 2-amino-6-(2,3-dimethoy)propoxypurine] reads > 100 µM.
Same read-out and setting: for `Nc1nc(OCC2=CCCCC2)c2nc[nH]c2n1` [NU2076, O^6-(1'-Cyclohexenyl)methylguanine] the value was 8 µM; for `CCCCCCCOc1nc(N)nc2nc[nH]c12` [NU2064, 2-amino-6-heptyloxypurine], 31 µM.
On the same count and under the same terms, for `CCCCOc1nc(N)nc2nc[nH]c12` [NU2052, 2-amino-6-n-butoxypurine] the value was 30 µM.
With `CCC(COc1nc(N)nc2[nH]cnc12)(OC)OC` [NU2050, 2-amino-6-(2,2-dimethoxy) butyloxypurine], the IC50 on CDK1 (p34 cdc2)/cyclin B is > 100 µM.
